The values that follow come from patent publication US5635391A, “Isolated DNA encoding a nitrilase polypeptide, hosts containing, and expression thereof optionally assisted by a E. coli GroE chaperone polypeptide” (priority 1992, dated 1997).

This experiment relates to E. coli TG1. The experiment can be described thus: Nitrilase activity of control strain E. coli TG1. In kind it is cell-based. Conditions: no IPTG, whole cells, DW 15.5 g/l, 1 ml, substrate 50 mM, 25° C. The procedure: The activities of these strains, induced or non-induced, are measured on adiponitrile and 5-cyanovalerate at different pH values and are compared with the negative control strains: E. coli TG1, E. coli TG1 (pXL2035) and Pseudomonas putida G2081.
The cultures are carried out under the conditions described in Table 4. During the exponential growth phase, one of the two cultures of the recombinant strain is induced with 1 mM IPTG; after 2 h at 37° C., this culture is treated.
The conditions of the specific activity measurements and the results are collated in Table 5.
COMMON CONDITIONS: [substrate]=50 mM; T=25° C.; buffer 50 mM; kinetics over 90 min for 1 to 3 and over 120 min for 4 to 8.
ABBREVIATIONS: W=whole cells; S=sonicated cells; Ua=μmols of cyanovalerate produced/h; Ub=μmols of adipate produced/h; AdN=adiponitrile; CVA=5-cyanovalerate. DW=dry weight.

With `N#CCCCCC#N` [Adiponitrile, adiponitrile], the “Activity Ub” value is, setting by setting: (pH 5.2) 0 μmols of adipate produced/h; (pH 7.0) 0 μmols of adipate produced/h.
